These results are taken from ChEMBL document CHEMBL1201862, “PubChem BioAssay data set” (2004).

Calls of active or inactive are those of the source. Where only a bound is given, the exact number is not on record here.

The test system of assay [1] is Candida albicans. The experiment in a line: growth inhibition of resistant C. albicans, dose response, CaCi-8 strain, fluconazole, dry powder, set 4 (AID 488950). Format: functional, organism-based.
Assay [2] relates to Candida albicans. Briefly: fluconazole resistance reversal in C. albicans, dose response, CaCi-2 strain, Alamar Blue, dry powder, set 4 (AID 488943). Format: functional, organism-based. For orientation: Resazurin is reduced to fluorescent resorufin, in cell work by metabolically active cells.
Assay [3] deals with Candida albicans. The experiment in a line: growth inhibition of azole-resistant C. albicans, dose response, CaCi-8 strain, Alamar Blue, dry powder, set 2 (AID 488909). Format: functional, organism-based.
Assay [4] deals with Beta-galactosidase (Escherichia coli, UniProt Q8VNN2). Briefly: PubChem AID 485352. Format: functional.
Sequence of Beta-galactosidase (Q8VNN2 whole entry): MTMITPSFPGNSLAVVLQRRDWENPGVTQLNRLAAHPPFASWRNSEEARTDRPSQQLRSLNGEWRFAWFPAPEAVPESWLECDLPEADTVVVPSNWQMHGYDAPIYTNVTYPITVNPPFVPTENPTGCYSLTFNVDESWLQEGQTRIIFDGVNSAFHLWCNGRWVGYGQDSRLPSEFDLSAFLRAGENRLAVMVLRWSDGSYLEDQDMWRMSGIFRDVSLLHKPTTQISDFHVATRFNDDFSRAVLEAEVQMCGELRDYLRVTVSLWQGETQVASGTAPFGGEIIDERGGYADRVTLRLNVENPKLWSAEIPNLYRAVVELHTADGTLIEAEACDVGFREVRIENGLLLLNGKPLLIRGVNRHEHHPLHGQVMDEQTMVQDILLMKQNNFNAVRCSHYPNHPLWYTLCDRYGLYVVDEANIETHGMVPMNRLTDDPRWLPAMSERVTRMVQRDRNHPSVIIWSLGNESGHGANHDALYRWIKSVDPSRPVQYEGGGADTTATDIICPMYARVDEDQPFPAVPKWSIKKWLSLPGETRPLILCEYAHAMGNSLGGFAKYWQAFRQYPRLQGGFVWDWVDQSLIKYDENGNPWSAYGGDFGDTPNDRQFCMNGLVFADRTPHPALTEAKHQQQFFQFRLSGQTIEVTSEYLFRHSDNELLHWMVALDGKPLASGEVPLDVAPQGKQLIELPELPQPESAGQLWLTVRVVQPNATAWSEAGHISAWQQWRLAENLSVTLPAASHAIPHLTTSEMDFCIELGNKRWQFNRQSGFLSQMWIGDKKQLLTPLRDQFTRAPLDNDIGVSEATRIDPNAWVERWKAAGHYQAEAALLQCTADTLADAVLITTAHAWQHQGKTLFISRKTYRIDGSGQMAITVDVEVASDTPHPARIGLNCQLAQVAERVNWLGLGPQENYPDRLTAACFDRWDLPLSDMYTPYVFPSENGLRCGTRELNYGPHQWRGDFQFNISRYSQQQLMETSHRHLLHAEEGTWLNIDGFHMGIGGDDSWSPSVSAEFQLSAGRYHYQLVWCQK
Assay [5] addresses Type-1 angiotensin II receptor (Homo sapiens, UniProt P30556). The experiment in a line: AT1 receptor antagonists, dose response, selectivity assay for APJ receptor antagonist project, cell-based, uHTS hits (AID 463214).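 Note: antagonist potency against angiotensin II stimulated AT1 response.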 Format: functional.
Assay [6] concerns the target Phospholipase D2 (Homo sapiens, UniProt O14939). Briefly: PLD2 inhibitor potency in cells, dose response (AID 602147).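 Note: cellular assay in HEK293 cells overexpressing GFP-tagged PLD2.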 Format: functional.
In assay [7] the target is Phospholipase D1 (Homo sapiens, UniProt Q13393). Briefly: PLD1 inhibitor potency in cells, dose response (AID 602151).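 Note: cellular PLD1 assay in Calu-1 cells stimulated with PMA.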 Format: functional.
Sequence of Phospholipase D1 (Q13393 whole entry): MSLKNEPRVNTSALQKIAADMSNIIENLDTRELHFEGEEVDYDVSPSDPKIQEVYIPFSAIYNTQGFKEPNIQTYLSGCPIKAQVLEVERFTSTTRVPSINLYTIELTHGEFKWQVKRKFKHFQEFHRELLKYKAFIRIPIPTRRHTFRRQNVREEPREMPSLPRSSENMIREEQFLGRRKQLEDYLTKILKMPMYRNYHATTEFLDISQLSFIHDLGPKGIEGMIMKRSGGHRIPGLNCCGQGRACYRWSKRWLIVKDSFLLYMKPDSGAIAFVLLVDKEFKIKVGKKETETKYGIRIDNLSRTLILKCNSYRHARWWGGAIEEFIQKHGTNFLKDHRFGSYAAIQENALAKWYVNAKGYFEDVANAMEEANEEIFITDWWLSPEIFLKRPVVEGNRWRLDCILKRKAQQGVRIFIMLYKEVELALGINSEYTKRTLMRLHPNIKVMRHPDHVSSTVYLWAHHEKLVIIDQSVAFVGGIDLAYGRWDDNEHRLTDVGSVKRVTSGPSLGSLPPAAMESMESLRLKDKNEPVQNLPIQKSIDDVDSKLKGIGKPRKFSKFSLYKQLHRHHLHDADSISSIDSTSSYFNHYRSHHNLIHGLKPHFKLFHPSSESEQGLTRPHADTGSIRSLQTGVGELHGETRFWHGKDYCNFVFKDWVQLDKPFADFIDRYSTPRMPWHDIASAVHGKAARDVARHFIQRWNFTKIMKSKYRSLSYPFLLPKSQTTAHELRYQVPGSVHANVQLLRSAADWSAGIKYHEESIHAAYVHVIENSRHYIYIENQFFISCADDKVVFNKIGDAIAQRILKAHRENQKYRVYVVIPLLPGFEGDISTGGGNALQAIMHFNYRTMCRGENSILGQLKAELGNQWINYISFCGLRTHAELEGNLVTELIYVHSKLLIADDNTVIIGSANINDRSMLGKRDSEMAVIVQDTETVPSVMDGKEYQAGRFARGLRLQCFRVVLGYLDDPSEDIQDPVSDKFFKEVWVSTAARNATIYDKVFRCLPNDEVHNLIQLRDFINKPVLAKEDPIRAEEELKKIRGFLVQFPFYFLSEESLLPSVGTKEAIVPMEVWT
The target of assay [8] is T1, Sentrin-specific protease 7 (Homo sapiens, UniProt Q9BQF6).
T1 sequence (Q9BQF6 whole entry): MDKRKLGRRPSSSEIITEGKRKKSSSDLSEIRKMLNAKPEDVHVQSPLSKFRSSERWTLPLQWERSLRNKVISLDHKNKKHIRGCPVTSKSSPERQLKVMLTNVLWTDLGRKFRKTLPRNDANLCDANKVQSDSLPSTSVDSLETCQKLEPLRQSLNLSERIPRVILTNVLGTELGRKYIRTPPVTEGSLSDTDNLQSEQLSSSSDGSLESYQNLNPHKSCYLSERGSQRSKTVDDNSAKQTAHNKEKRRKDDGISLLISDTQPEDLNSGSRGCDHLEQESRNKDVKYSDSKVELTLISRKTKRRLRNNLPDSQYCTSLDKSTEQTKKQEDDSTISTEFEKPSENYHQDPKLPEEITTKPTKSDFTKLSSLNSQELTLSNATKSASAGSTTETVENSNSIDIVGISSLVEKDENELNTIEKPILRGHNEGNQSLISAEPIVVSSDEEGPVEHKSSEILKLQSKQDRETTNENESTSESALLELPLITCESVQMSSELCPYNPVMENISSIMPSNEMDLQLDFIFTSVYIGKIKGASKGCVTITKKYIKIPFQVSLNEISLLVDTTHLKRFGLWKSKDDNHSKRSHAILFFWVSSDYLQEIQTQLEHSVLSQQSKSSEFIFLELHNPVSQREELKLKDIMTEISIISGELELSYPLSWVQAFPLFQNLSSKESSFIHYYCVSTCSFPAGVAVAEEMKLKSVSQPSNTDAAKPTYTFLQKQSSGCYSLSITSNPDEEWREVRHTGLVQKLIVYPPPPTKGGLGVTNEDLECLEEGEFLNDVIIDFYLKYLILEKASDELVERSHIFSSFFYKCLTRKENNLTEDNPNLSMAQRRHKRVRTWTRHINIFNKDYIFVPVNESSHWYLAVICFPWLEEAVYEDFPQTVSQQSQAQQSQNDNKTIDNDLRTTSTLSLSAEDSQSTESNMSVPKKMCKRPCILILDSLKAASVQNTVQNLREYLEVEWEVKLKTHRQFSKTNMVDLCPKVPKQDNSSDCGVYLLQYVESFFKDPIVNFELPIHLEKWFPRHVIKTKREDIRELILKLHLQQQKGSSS
The experiment in a line: SENP7 protease inhibitors, SAR follow-up, biochemical, luminescence, set 2 (AID 588600). Format: functional.

Assay [9] concerns the target T2, Sentrin-specific protease 6 (Homo sapiens, UniProt Q9GZR1).
T2 sequence (Q9GZR1 whole entry): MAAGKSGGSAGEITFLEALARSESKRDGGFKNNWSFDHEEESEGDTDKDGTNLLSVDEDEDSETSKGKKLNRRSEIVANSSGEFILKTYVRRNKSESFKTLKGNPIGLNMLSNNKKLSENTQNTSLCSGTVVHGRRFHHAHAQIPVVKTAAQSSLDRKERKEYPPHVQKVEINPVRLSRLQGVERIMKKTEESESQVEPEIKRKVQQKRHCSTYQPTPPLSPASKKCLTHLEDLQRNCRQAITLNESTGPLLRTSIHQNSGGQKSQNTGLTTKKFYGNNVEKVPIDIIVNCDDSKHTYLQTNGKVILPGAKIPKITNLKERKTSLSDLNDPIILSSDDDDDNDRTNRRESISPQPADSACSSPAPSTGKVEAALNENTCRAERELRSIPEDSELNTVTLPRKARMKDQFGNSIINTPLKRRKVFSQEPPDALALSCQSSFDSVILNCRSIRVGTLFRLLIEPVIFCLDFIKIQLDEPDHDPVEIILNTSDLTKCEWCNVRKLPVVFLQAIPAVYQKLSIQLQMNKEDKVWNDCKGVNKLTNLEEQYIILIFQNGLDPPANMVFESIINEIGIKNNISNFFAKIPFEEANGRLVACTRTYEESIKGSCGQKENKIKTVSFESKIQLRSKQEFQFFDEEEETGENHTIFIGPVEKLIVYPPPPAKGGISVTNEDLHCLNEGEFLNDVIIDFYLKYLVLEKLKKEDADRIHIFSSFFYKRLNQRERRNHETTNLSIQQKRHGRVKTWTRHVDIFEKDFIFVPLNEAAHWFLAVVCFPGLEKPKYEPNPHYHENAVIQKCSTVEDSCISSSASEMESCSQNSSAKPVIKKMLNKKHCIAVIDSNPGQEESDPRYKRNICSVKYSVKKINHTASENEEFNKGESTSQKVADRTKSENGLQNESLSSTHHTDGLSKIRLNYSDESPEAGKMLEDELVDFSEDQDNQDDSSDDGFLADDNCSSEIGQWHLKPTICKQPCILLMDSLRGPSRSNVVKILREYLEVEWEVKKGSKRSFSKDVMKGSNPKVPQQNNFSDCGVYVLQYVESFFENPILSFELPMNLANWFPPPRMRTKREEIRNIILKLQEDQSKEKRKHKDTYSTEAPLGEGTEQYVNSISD
Briefly: SENP6 protease inhibitors, SAR follow-up, biochemical, luminescence, set 2 (AID 588598). Format: functional.

The target in assay [10] is T3, Caspase-3 (Homo sapiens, UniProt P42574).
T3 sequence (P42574 whole entry): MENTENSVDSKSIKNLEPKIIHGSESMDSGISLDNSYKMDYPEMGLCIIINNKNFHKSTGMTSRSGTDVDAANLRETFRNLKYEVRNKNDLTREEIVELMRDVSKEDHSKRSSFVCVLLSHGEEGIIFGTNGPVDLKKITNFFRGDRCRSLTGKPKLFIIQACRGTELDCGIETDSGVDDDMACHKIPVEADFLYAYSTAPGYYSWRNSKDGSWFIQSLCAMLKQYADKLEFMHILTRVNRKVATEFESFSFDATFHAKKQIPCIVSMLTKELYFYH
The experiment in a line: caspase-3 inhibitors as off-family protease, SAR follow-up, selectivity assay for SENP protease inhibitor project, biochemical, luminescence, set 2 (AID 588599). Format: functional.

The target of assay [11] is T4, Sentrin-specific protease 8 (Homo sapiens, UniProt Q96LD8).
T4 sequence (Q96LD8 whole entry): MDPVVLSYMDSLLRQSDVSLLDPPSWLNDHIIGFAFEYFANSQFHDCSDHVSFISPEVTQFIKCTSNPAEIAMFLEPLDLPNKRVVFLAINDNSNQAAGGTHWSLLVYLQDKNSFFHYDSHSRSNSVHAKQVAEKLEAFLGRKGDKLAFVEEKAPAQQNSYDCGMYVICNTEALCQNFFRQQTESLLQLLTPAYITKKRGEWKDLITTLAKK
The experiment in a line: SENP8 protease inhibitors, SAR follow-up, biochemical, luminescence, set 2 (AID 588601). Format: functional.

Sequence of Phospholipase D2 (O14939 whole entry): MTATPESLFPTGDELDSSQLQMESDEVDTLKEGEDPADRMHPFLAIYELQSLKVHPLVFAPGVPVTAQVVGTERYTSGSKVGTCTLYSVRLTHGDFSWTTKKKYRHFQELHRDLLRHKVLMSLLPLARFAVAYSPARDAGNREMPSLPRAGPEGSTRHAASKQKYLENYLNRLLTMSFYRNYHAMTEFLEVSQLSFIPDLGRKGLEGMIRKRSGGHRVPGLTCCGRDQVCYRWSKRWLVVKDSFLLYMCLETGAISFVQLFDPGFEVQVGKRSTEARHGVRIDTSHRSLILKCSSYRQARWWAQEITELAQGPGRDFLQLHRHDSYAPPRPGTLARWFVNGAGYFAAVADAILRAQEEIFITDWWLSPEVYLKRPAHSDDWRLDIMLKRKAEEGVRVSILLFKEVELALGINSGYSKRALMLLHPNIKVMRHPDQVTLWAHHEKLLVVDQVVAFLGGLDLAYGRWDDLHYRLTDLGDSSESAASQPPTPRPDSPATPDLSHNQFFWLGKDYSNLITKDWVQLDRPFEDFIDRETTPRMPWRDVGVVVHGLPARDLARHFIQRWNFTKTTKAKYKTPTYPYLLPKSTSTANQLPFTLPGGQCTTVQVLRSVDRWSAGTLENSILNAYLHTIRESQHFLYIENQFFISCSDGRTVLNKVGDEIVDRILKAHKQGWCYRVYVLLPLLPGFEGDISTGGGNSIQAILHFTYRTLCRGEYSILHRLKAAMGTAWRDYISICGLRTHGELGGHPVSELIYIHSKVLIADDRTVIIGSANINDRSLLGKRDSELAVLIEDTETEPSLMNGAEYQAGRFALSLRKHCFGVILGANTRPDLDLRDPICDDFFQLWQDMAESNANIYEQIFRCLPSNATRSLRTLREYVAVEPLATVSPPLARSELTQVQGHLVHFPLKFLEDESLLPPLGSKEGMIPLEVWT
Sequence of Type-1 angiotensin II receptor (P30556 whole entry): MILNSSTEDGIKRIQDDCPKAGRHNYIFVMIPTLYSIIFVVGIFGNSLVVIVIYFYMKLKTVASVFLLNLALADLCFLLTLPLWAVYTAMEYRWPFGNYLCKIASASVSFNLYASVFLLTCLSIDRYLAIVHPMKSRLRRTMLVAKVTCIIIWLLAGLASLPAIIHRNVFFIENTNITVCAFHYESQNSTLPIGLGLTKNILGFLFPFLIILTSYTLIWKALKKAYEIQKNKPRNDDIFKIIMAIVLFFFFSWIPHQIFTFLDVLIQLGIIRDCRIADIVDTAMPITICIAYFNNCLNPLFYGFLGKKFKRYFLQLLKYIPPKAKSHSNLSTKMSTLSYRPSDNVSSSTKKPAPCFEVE

A word on the AC50: it is the midpoint of the concentration-response curve, whichever way the signal moves. Take `O=C(c1ccc(Cl)cc1)N1CCN(c2ncnc3ccccc23)CC1`: the AC50 in assay [1] is 2.27 µM (active); in assay [2], 1.07 µM (active); in assay [3] it was 4.12 µM (active).
As a reminder, the EC50 is the concentration at which the effect is half-maximal. Broadly, the IC50 is the midpoint of a concentration-inhibition curve. With `Cc1ccc(C)c(NCC(=O)c2ccc(Cl)cc2)c1`, the EC50 in [4] is > 40 µM (inactive). Also, the IC50 in assay [5] is 14.4 µM (active).
Consider `O=C(NCCN1CCC(n2c(=O)[nH]c3ccccc32)CC1)c1cscn1`, for which the IC50 was 0.25 µM (active) in [6] and 0.033 µM (active) in assay [7].
In the case of `COc1cccc2sc(NC(=O)c3ccc(OCc4nccn4C)cc3)nc12`, the IC50 in assay [8] is > 99 µM (inactive); in [9], 77.2 µM (active); in assay [10], 89.9 µM (active); in [11], 77.4 µM (active).
